Test results published in ChEMBL document CHEMBL1130465, “Peptidic prodrugs of novel aminomethyl-THF 1-methylcarbapenems” (1997).
Values after ≈ are worked out from the molar mass of the structure shown.

Key:
Format in all cases: functional
[1] = system: Acinetobacter calcoaceticus; assay: In vitro antimicrobial activity against Acinetobacter calcoaceticus GC 756 strain; settings: Acinetobacter calcoaceticus; read-out: MIC
Mus musculus [2] = assay: Tested for oral activity against Staphylococcus aureus smith infection in mice after single oral dose(SOD); settings: Mus musculus, po; read-out: ED50
Staphylococcus aureus [3] = assay: In vitro antimicrobial activity against Staphylococcus aureus ATCC 29213 strain
Staphylococcus aureus [4] = assay: In vitro antimicrobial activity against Staphylococcus aureus GC 2220 strain; settings: Staphylococcus aureus; read-out: MIC
Pseudomonas aeruginosa [5] = assay: In vitro antimicrobial activity against Pseudomonas aeruginosa ATCC 27853 strain; settings: Pseudomonas aeruginosa, ATCC 27853; read-out: MIC
Mus musculus [6] = assay: Tested for oral activity against Staphylococcus aureus smith infection in mice after single subcutaneous dose(SSC); 0.42-0.83
Escherichia coli [7] = assay: In vitro antimicrobial activity against Escherichia coli GC 1792 strain; settings: Escherichia coli; read-out: MIC
Enterococcus faecium = assay: In vitro antimicrobial activity against Enterococcus faecium GC 1182 strain; settings: Enterococcus faecium; read-out: MIC
Escherichia coli [8] = assay: In vitro antimicrobial activity against Escherichia coli GC 2205 strain
Enterococcus faecalis = assay: In vitro antimicrobial activity against Enterococcus faecalis GC 842 strain; settings: Enterococcus faecalis; read-out: MIC
[9] = Ratio of ED50 of single oral dose to ED50 of single subcutaneous dose against Staphylococcus aureus smith infection in mice; 16-8
Escherichia coli [10] = assay: In vitro antimicrobial activity against Escherichia coli ATCC 25922 strain
Citrobacter freundii = assay: In vitro antimicrobial activity against Citrobacter freundii GC 2211 strain; settings: Citrobacter freundii; read-out: MIC
Enterobacter cloacae = assay: In vitro antimicrobial activity against Enterobacter cloacae GC 2209 strain
Pseudomonas aeruginosa [11] = assay: In vitro antimicrobial activity against Pseudomonas aeruginosa GC 1544 strain; settings: Pseudomonas aeruginosa; read-out: MIC
Morganella morganii = assay: In vitro antimicrobial activity against Morganella morganii GC 2213 strain; settings: Morganella morganii; read-out: MIC
[12] = system: Stenotrophomonas maltophilia; assay: In vitro antimicrobial activity against Xanthomonas maltophilia GC 562 strain
Mus musculus [13] = assay: Tested for oral activity against Staphylococcus aureus smith infection in mice after single oral dose(SOD); 0.83-1.7
[14] = Ratio of ED50 of single oral dose to ED50 of single subcutaneous dose against Staphylococcus aureus smith infection in mice
Mus musculus [15] = assay: Tested for oral activity against Staphylococcus aureus smith infection in mice after single subcutaneous dose(SSC); 0.06-0.21
Mus musculus [16] = assay: Tested for oral activity against Staphylococcus aureus smith infection in mice after single subcutaneous dose(SSC); 0.1-0.21
Mus musculus [17] = assay: Tested for oral activity against Escherichia coli #311 infection in mice after single subcutaneous dose(SSC)
Mus musculus [18] = species: Mus musculus; assay: animal or person; settings: Mus musculus, po; read-out: ED50
Description: Tested for oral activity against Escherichia coli #311 infection in mice after single oral dose(SOD)

Mus musculus [19] = assay: Tested for oral activity against Staphylococcus aureus smith infection in mice after single oral dose(SOD); 4-8
Mus musculus [20] = assay: Tested for oral activity against Staphylococcus aureus smith infection in mice after single subcutaneous dose(SSC); 0.12-0.25
Mus musculus [21] = assay: Tested for oral activity against Escherichia coli #311 infection in mice after single subcutaneous dose(SSC); 0.5-1

`C[C@H](N)C(=O)NC[C@H]1OCC[C@H]1SC1=C(C(=O)O)N2C(=O)[C@H]([C@@H](C)O)C2[C@H]1C` (stereo not given in full) gave an MIC [1] of 8 µg/mL (≈ 19.3 µM), an ED50 (Mus musculus [2]) of 6.6 mg/kg and an MIC (Staphylococcus aureus [3]) of under 0.06 µg/mL. For the same molecule, the MIC (Staphylococcus aureus [4]) was 8 µg/mL (≈ 19.3 µM), the MIC (Pseudomonas aeruginosa [5]) was 64 µg/mL (≈ 155 µM) and the ED50 (Mus musculus [6]) was 0.42 mg/kg. For the same molecule, the MIC (Escherichia coli [7]) was 0.12 µg/mL (≈ 0.29 µM), the MIC (Enterococcus faecium) was over 128 µg/mL and the MIC (Escherichia coli [8]) was under 0.06 µg/mL. The MIC (Enterococcus faecalis) was 2 µg/mL (≈ 4.84 µM), the Ratio [9] was over 16 and the MIC (Escherichia coli [10]) was under 0.06 µg/mL. It also gave an MIC (Citrobacter freundii) of 1 µg/mL (≈ 2.42 µM), an MIC (Enterobacter cloacae) of 0.25 µg/mL (≈ 0.605 µM) and an MIC (Pseudomonas aeruginosa [11]) of 64 µg/mL (≈ 155 µM). It also gave an MIC (Morganella morganii) of 1 µg/mL (≈ 2.42 µM) and an MIC [12] of over 128 µg/mL.
`C[C@@H](N)C(=O)NC[C@@H]1C[C@@H](SC2=C(C(=O)O)N3C(=O)[C@H]([C@@H](C)O)C3[C@H]2C)CO1` (stereo not given in full) gave an MIC [1] of 8 µg/mL (≈ 19.3 µM), an ED50 (Mus musculus [13]) of 0.83 mg/kg and an MIC (Staphylococcus aureus [3]) of under 0.06 µg/mL. For the same molecule, the MIC (Staphylococcus aureus [4]) was 4 µg/mL (≈ 9.67 µM), the MIC (Pseudomonas aeruginosa [5]) was 32 µg/mL (≈ 77.4 µM) and the MIC (Escherichia coli [7]) was 0.12 µg/mL (≈ 0.29 µM). It also gave an MIC (Enterococcus faecium) of over 128 µg/mL, an MIC (Escherichia coli [8]) of 0.12 µg/mL (≈ 0.29 µM) and an MIC (Enterococcus faecalis) of 4 µg/mL (≈ 9.67 µM). The MIC (Escherichia coli [10]) was under 0.06 µg/mL, the MIC (Citrobacter freundii) was 0.5 µg/mL (≈ 1.21 µM) and the Ratio [14] was 14. The MIC (Enterobacter cloacae) was 0.12 µg/mL (≈ 0.29 µM), the MIC (Pseudomonas aeruginosa [11]) was 64 µg/mL (≈ 155 µM) and the ED50 (Mus musculus [15]) was 0.06 mg/kg. The MIC (Morganella morganii) was 1 µg/mL (≈ 2.42 µM) and the MIC [12] was over 128 µg/mL.
`C[C@@H](N)C(=O)NC[C@@H]1C[C@H](SC2=C(C(=O)O)N3C(=O)[C@H]([C@@H](C)O)C3[C@H]2C)CO1` (stereo not given in full) showed an MIC [1] of 8 µg/mL (≈ 19.3 µM), an ED50 (Mus musculus [13]) of 0.83 mg/kg and an MIC (Staphylococcus aureus [3]) of under 0.06 µg/mL. For the same molecule, the MIC (Staphylococcus aureus [4]) was 8 µg/mL (≈ 19.3 µM), the MIC (Pseudomonas aeruginosa [5]) was 32 µg/mL (≈ 77.4 µM) and the MIC (Escherichia coli [7]) was 0.06 µg/mL (≈ 0.145 µM). The MIC (Enterococcus faecium) was over 128 µg/mL, the MIC (Escherichia coli [8]) was 0.12 µg/mL (≈ 0.29 µM) and the MIC (Enterococcus faecalis) was 4 µg/mL (≈ 9.67 µM). The MIC (Escherichia coli [10]) was under 0.06 µg/mL, the MIC (Citrobacter freundii) was 1 µg/mL (≈ 2.42 µM) and the Ratio [14] was 8.3. The MIC (Enterobacter cloacae) was 0.25 µg/mL (≈ 0.605 µM), the MIC (Pseudomonas aeruginosa [11]) was 64 µg/mL (≈ 155 µM) and the MIC (Morganella morganii) was 1 µg/mL (≈ 2.42 µM). For the same molecule, the MIC [12] was over 128 µg/mL and the ED50 (Mus musculus [16]) was 0.1 mg/kg.
For `C[C@H]1C(S[C@@H]2CCO[C@@H]2CNC(=O)[C@@H](N)Cc2ccccc2)=C(C(=O)O)N2C(=O)[C@H]([C@@H](C)O)C12` (stereo not given in full), the MIC [1] was 32 µg/mL (≈ 65.4 µM), the MIC (Staphylococcus aureus [3]) was 0.25 µg/mL (≈ 0.511 µM) and the MIC (Staphylococcus aureus [4]) was 8 µg/mL (≈ 16.3 µM). It also gave an MIC (Pseudomonas aeruginosa [5]) of 64 µg/mL (≈ 131 µM), an MIC (Escherichia coli [7]) of 0.5 µg/mL (≈ 1.02 µM) and an MIC (Enterococcus faecium) of 128 µg/mL (≈ 261 µM). For the same molecule, the ED50 (Mus musculus [17]) was 13 mg/kg, the MIC (Escherichia coli [8]) was 0.06 µg/mL (≈ 0.123 µM) and the MIC (Enterococcus faecalis) was 1 µg/mL (≈ 2.04 µM). For the same molecule, the MIC (Escherichia coli [10]) was 0.5 µg/mL (≈ 1.02 µM), the MIC (Citrobacter freundii) was 8 µg/mL (≈ 16.3 µM) and the ED50 (Mus musculus [18]) was 24 mg/kg. It also gave an MIC (Enterobacter cloacae) of 4 µg/mL (≈ 8.17 µM), an MIC (Pseudomonas aeruginosa [11]) of 128 µg/mL (≈ 261 µM) and an MIC (Morganella morganii) of 2 µg/mL (≈ 4.09 µM). The MIC [12] was over 128 µg/mL.
Work on `C[C@H]1C(S[C@H]2COC[C@H]2CN)=C(C(=O)O)N2C(=O)[C@H]([C@@H](C)O)C12` (stereo not given in full) yielded an MIC [1] of 2 µg/mL (≈ 5.84 µM), an ED50 (Mus musculus [19]) of 4 mg/kg and an MIC (Staphylococcus aureus [3]) of under 0.06 µg/mL. For the same molecule, the MIC (Staphylococcus aureus [4]) was 4 µg/mL (≈ 11.7 µM), the MIC (Pseudomonas aeruginosa [5]) was 16 µg/mL (≈ 46.7 µM) and the MIC (Escherichia coli [7]) was under 0.06 µg/mL. The MIC (Enterococcus faecium) was 128 µg/mL (≈ 374 µM), the MIC (Escherichia coli [8]) was 0.12 µg/mL (≈ 0.35 µM) and the MIC (Enterococcus faecalis) was 2 µg/mL (≈ 5.84 µM). It also gave an ED50 (Mus musculus [20]) of 0.12 mg/kg, an MIC (Escherichia coli [10]) of under 0.06 µg/mL and an MIC (Citrobacter freundii) of 0.25 µg/mL (≈ 0.73 µM). It also gave a Ratio [14] of 33, an MIC (Enterobacter cloacae) of under 0.06 µg/mL and an ED50 (Mus musculus [21]) of 0.5 mg/kg. For the same molecule, the MIC (Pseudomonas aeruginosa [11]) was 32 µg/mL (≈ 93.5 µM), the MIC (Morganella morganii) was 2 µg/mL (≈ 5.84 µM) and the MIC [12] was over 128 µg/mL.
